The text below walks through data of publication PMC4881381, “Subcellular Localization of Galloylated Catechins in Tea Plants [Camellia sinensis (L.) O. Kuntze] Assessed via Immunohistochemistry” (Frontiers in Plant Science, 2016).

For orientation: pKd means −log10 of the Kd, conventionally taken in molar units. Higher therefore signals a small Kd.

pKd: −log10 of the molar value.

The assay has as its target T1, anti-galloylated catechin monoclonal antibody (mAb) P6C2.
T1 construct: whole purified mAb (~150 kDa; 50 kDa heavy and 25 kDa light chains), biotinylated
In words: bio-layer interferometry (ForteBio Octet Red […], SSA biosensors); direct ELISA. The format is binding. In general terms: Biolayer interferometry detects binding as a change in optical thickness at a sensor tip.

Regarding `O=C(O[C@@H]1Cc2c(O)cc(O)cc2O[C@@H]1c1ccc(O)c(O)c1)c1cc(O)c(O)c(O)c1` [ECG, (-)-epicatechin-3-gallate], the pKd is 6.71. Turning to `O=C(O[C@@H]1Cc2c(O)cc(O)cc2O[C@@H]1c1cc(O)c(O)c(O)c1)c1cc(O)c(O)c(O)c1` [EGCG, (-)-epigallocatechin-3-gallate], the pKd was 5.03.
